Laboratory results: US20210070748A1, “INHIBITORS OF BRUTONS TYROSINE KINASE” (Pharmacyclics LLC, priority 2015, published 2021)
pIC50: −log10 of the molar value.

Legend:
Type in all cases: biochemical
LCK = LCK (Homo sapiens, UniProt P06239); assay: Inhibition of a panel of kinases, in vitro HotSpot kinase assay: LCK; settings: D-compounds panel data; 1 μM ATP; read-out: IC50 LCK
BTK-WT = target: T1, BTK-WT (Homo sapiens, UniProt Q06187); assay: Btk in vitro inhibitory activity (one of Method A TR-FRET, Method B electrophoretic mobility shift, Method C radiometric filter binding); settings: D-compounds panel data; read-out: IC50 BTK-WT
T1 construct: purified from insect cells as a full-length construct containing an N-terminal 6X-His tag; His6 (N); made in house; host or cells: insect cells (baculovirus Sf21 in Method B)
T1 sequence (Q06187 whole entry): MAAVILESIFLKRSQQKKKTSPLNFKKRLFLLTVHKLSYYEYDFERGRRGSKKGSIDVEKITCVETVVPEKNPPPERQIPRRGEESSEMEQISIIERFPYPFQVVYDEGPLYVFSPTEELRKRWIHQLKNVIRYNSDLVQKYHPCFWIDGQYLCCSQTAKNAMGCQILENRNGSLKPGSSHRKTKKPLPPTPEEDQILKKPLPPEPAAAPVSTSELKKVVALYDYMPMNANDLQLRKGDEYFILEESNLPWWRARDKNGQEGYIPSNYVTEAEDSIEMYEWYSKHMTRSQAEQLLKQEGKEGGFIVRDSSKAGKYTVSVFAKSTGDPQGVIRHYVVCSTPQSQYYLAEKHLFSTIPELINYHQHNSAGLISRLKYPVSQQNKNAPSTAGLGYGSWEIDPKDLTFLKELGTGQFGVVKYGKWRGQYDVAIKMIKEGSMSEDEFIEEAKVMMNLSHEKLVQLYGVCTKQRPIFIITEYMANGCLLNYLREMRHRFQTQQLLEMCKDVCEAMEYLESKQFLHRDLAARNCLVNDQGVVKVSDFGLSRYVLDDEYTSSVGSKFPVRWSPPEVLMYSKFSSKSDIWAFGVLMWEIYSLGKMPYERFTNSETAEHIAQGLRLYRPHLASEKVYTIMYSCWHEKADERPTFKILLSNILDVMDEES

ITK = target: T2, ITK (Homo sapiens, UniProt Q08881); assay: Inhibition of a panel of kinases, in vitro HotSpot kinase assay: ITK; settings: D-compounds panel data; 1 μM ATP
T2 sequence (Q08881 1-620): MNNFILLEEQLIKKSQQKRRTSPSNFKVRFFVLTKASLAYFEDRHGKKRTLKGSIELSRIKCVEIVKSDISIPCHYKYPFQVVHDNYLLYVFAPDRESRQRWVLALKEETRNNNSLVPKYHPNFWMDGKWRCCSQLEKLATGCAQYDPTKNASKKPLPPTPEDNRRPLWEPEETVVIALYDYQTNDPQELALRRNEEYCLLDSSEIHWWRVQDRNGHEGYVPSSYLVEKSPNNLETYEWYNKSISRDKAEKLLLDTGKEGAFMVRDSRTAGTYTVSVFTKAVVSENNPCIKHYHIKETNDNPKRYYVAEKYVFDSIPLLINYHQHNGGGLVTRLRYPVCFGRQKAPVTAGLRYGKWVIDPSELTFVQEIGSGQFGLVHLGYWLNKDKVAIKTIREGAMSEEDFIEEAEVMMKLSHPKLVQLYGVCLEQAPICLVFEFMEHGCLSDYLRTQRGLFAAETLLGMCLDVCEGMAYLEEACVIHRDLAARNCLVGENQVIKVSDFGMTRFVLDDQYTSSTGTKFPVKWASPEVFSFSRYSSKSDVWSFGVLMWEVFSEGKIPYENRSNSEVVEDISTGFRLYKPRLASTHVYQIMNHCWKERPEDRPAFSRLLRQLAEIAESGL
Description: (§1) The degree of inhibition of a panel of kinases is determined using the in vitro HotSpot kinase assay (purified enzymes, ^33P-ATP, an appropriate substrate and 1 μM ATP).

EGFR = EGFR (Homo sapiens, UniProt P00533); assay: Inhibition of a panel of kinases, in vitro HotSpot kinase assay: EGFR; settings: D-compounds panel data; 1 μM ATP
EGFR, sequence (P00533 25-1210): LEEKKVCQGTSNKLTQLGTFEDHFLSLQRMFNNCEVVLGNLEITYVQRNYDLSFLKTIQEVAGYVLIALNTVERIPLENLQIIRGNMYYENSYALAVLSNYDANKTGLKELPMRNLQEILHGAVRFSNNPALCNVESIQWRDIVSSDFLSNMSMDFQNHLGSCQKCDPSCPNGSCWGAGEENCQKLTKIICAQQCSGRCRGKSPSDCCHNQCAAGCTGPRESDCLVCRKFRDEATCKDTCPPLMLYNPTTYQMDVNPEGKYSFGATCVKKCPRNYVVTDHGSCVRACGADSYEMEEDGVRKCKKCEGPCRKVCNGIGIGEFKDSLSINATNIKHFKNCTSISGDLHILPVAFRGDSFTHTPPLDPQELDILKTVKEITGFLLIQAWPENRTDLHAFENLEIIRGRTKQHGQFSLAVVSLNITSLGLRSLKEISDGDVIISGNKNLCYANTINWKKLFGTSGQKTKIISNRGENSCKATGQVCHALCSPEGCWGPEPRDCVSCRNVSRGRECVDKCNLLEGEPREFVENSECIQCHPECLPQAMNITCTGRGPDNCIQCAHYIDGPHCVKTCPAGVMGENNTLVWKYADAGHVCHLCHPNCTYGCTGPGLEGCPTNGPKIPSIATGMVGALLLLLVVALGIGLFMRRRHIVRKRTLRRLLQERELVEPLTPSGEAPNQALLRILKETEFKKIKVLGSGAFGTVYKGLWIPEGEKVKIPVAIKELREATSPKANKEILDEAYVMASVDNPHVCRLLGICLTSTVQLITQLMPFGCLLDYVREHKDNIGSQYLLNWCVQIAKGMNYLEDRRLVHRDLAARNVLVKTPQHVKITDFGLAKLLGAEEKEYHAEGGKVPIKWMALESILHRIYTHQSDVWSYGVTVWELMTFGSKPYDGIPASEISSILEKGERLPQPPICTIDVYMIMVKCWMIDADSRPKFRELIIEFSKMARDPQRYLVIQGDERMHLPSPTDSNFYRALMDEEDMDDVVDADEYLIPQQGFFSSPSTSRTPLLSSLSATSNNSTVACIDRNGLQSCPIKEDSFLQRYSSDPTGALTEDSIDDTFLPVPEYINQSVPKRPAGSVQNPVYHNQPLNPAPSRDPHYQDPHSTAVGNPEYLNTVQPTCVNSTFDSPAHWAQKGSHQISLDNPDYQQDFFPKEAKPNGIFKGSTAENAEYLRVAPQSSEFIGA
Description: as §1

LCK, sequence (P06239 whole entry): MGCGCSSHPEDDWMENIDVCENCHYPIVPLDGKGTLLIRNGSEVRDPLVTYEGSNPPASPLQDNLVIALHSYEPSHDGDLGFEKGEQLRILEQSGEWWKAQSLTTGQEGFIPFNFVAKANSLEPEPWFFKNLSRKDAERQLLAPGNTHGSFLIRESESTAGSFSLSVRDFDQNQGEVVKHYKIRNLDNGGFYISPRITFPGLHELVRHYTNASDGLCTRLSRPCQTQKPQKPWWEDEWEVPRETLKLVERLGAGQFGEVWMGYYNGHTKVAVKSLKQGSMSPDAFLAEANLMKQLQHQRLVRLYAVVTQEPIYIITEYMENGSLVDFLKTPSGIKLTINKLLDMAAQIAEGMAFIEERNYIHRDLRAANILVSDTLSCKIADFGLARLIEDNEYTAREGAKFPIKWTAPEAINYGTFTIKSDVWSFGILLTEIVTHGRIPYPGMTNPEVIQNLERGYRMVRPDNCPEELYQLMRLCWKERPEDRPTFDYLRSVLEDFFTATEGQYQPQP

Structure (SMILES)	pIC50 (LCK)	pIC50 (BTK-WT)	pIC50 (ITK)	pIC50 (EGFR)
C[C@@H]1[C@H](NC(=O)c2ccc(C3CC3)nc2)CCCN1c1cnc(C(N)=O)c(Nc2ccc(OC3CCOCC3)cc2)n1 [Example D-309, 5-[(2R,3R)-3-(6-cyclopropylpyridine-3-amido)-2-methylpiperidin-1-yl]-3-{[4-(oxan-4-yloxy)phenyl]amino}pyrazine-2-carboxamide]	6.00 to 7.00	≥ 8.00	6.00 to 7.00	6.00 to 7.00
C[C@@H]1[C@H](NC(=O)c2ccc(C3CC3)cc2)CCCN1c1cnc(C(N)=O)c(Nc2ccc(C3CCN(C)CC3)cc2)n1 [Example D-301, 5-[(2R,3R)-3-(4-cyclopropylbenzamido)-2-methylpiperidin-1-yl]-3-{[4-(1-methylpiperidin-4-yl)phenyl]amino}pyrazine-2-carboxamide]	6.00 to 7.00	≥ 8.00	6.00 to 7.00	6.00 to 7.00
C[C@@H]1[C@H](NC(=O)c2ccc(C3CC3)cc2)CCCN1c1cnc(C(N)=O)c(Nc2cnn(C3CCN(C(=O)C4(C)COC4)CC3)c2)n1 [Example D-289, 5-[(2R,3R)-3-(4-cyclopropylbenzamido)-2-methylpiperidin-1-yl]-3-({1-[1-(3-methyloxetane-3-carbonyl)piperidin-4-yl]-1H-pyrazol-4-yl}amino)pyrazine-2-carboxamide]	7.00 to 8.00	≥ 8.00	7.00 to 8.00	6.00 to 7.00
C[C@@H]1[C@H](NC(=O)N(C)C)CCCN1c1nnc(C(N)=O)c(Nc2cnn(C)c2)n1 [Example D-286, 3-[(2R,3R)-3-[(dimethylcarbamoyl)amino]-2-methylpiperidin-1-yl]-5-[(1-methyl-1H-pyrazol-4-yl)amino]-1,2,4-triazine-6-carboxamide]	6.00 to 7.00	≥ 8.00	7.00 to 8.00	5.00 to 6.00
C[C@@H]1[C@H](NC(=O)c2ccc(C3CC3)cc2)CCCN1c1cnc(C(N)=O)c(Nc2cn(C)nc2C(F)(F)F)n1 [Example D-278, 5-[(2R,3R)-3-(4-cyclopropylbenzamido)-2-methylpiperidin-1-yl]-3-{[1-methyl-3-(trifluoromethyl)-1H-pyrazol-4-yl]amino}pyrazine-2-carboxamide]	< 5.00	< 5.00	< 5.00	< 5.00
C[C@@H]1[C@H](NC(=O)c2ccc(C(C)(C)C#N)cc2)CCCN1c1cnc(C(N)=O)c(Nc2ccc(OC3CCN(C)CC3)cc2)n1 [Example D-292, 5-[(2R,3R)-3-[4-(1-cyano-1-methylethyl)benzamido]-2-methylpiperidin-1-yl]-3-({4-[(1-methylpiperidin-4-yl)oxy]phenyl}amino)pyrazine-2-carboxamide]	7.00 to 8.00	≥ 8.00	7.00 to 8.00	6.00 to 7.00
C[C@@H]1[C@H](NC(=O)c2ccc(C3CC3)cc2)CCCN1c1cnc(C(N)=O)c(Nc2ccc3c(c2)OC(F)(F)O3)n1 [Example D-315, 5-[(2R,3R)-3-(4-cyclopropylbenzamido)-2-methylpiperidin-1-yl]-3-[(2,2-difluoro-2H-1,3-benzodioxol-5-yl)amino]pyrazine-2-carboxamide]	< 5.00	5.00 to 6.00	< 5.00	< 5.00

The remaining lines, values ahead:

pIC50 (LCK)	pIC50 (BTK-WT)	pIC50 (ITK)	pIC50 (EGFR)	Structure (SMILES)
< 5.00	7.00 to 8.00	< 5.00	5.00 to 6.00	Cc1nn(C)cc1Nc1nc(N2CCC[C@@H](NC(=O)c3ccc(C4CC4)cc3)[C@H]2C)cnc1C(N)=O [Example D-272, 5-[(2R,3R)-3-(4-cyclopropylbenzamido)-2-methylpiperidin-1-yl]-3-[(1,3-dimethyl-1H-pyrazol-4-yl)amino]pyrazine-2-carboxamide]
7.00 to 8.00	≥ 8.00	6.00 to 7.00	6.00 to 7.00	COCCN(C)c1ccc(C(=O)N[C@@H]2CCCN(c3cnc(C(N)=O)c(Nc4cnn(C)c4)n3)[C@@H]2C)cc1 [Example D-248, 5-[(2R,3R)-3-{4-[(2-methoxyethyl)(methyl)amino]benzamido}-2-methylpiperidin-1-yl]-3-[(1-methyl-1H-pyrazol-4-yl)amino]pyrazine-2-carboxamide]
6.00 to 7.00	≥ 8.00	6.00 to 7.00	5.00 to 6.00	C[C@@H]1[C@H](NC(=O)c2ccc3c(c2)CCC(C)(C)O3)CCCN1c1cnc(C(N)=O)c(Nc2cnn(C)c2)n1 [Example D-258, 5-[(2R,3R)-3-(2,2-dimethyl-3,4-dihydro-2H-1-benzopyran-6-amido)-2-methylpiperidin-1-yl]-3-[(1-methyl-1H-pyrazol-4-yl)amino]pyrazine-2-carboxamide]
6.00 to 7.00	≥ 8.00	6.00 to 7.00	6.00 to 7.00	C[C@@H]1[C@H](NC(=O)c2cc(C3CC3)n(C)n2)CCCN1c1cnc(C(N)=O)c(Nc2cnn(C)c2)n1 [Example D-253, 5-[(2R,3R)-3-(5-cyclopropyl-1-methyl-1H-pyrazole-3-amido)-2-methylpiperidin-1-yl]-3-[(1-methyl-1H-pyrazol-4-yl)amino]pyrazine-2-carboxamide]
5.00 to 6.00	7.00 to 8.00	< 5.00	5.00 to 6.00	C[C@@H]1[C@H](NC(=O)c2ccc(C3CC3)cc2)CCCN1c1cnc(C(N)=O)c(Nc2cnn(C)c2F)n1 [Example D-290, 5-[(2R,3R)-3-(4-cyclopropylbenzamido)-2-methylpiperidin-1-yl]-3-[(5-fluoro-1-methyl-1H-pyrazol-4-yl)amino]pyrazine-2-carboxamide]
7.00 to 8.00	≥ 8.00	6.00 to 7.00	6.00 to 7.00	C[C@@H]1[C@H](NC(=O)c2cc3n(n2)CCC3)CCCN1c1cnc(C(N)=O)c(Nc2cnn(C)c2)n1 [Example D-263, 3-[(1-methyl-1H-pyrazol-4-yl)amino]-5-[(2R,3R)-2-methyl-3-{4H,5H,6H-pyrrolo[1,2-b]pyrazole-2-amido}piperidin-1-yl]pyrazine-2-carboxamide]
7.00 to 8.00	≥ 8.00	6.00 to 7.00	6.00 to 7.00	C[C@@H]1[C@H](NC(=O)c2ccc(C(N)=O)cc2)CCCN1c1cnc(C(N)=O)c(Nc2cnn(C)c2)n1 [Example D-268, 1-N-[(2R,3R)-1-{5-carbamoyl-6-[(1-methyl-1H-pyrazol-4-yl)amino]pyrazin-2-yl}-2-methylpiperidin-3-yl]benzene-1,4-dicarboxamide]
6.00 to 7.00	7.00 to 8.00	5.00 to 6.00	5.00 to 6.00	C[C@@H]1[C@H](NC(=O)c2ccc(C3CC3)cc2C(F)(F)F)CCCN1c1cnc(C(N)=O)c(Nc2cnn(C)c2)n1 [Example D-25, 5-[(2R,3R)-3-[4-cyclopropyl-2-(trifluoromethyl)benzamido]-2-methylpiperidin-1-yl]-3-[(1-methyl-1H-pyrazol-4-yl)amino]pyrazine-2-carboxamide]
6.00 to 7.00	≥ 8.00	6.00 to 7.00	5.00 to 6.00	C[C@@H]1[C@H](NC(=O)c2cc(C(C)(C)C)n[nH]2)CCCN1c1cnc(C(N)=O)c(Nc2cnn(C)c2)n1 [Example D-244, 5-[(2R,3R)-3-(3-tert-butyl-1H-pyrazole-5-amido)-2-methylpiperidin-1-yl]-3-[(1-methyl-1H-pyrazol-4-yl)amino]pyrazine-2-carboxamide]
